In patent US10159651B2, “Two-stage microparticle-based therapeutic delivery system and method” (Privo Technologies, Inc., priority 2016, dated 2018):

Columns and labels:
[1] = permeation of fluorescent dyes from multi-layered device into buccal tissue; assay type: in vitro ADME, lamb
From the text: FIGS. 5A-5C show three images taken from lamb buccal tissue at different time points.
In another representative embodiment, a multi-layered device may be used for the delivery of multiple agents over a prolonged period of time (FIG. 4, FIG. 5). If the example of mucositis is again used, multiple layers may include a pain mitigator in free form, a pain mitigator encapsulated within microparticles and an agent for the treatment of mucositis encapsulated within microparticles. The initial freeform layer is able to provide immediate pain relief, and the subsequent particle-encapsulated layers are capable of delivering microparticles beneath the tissue, where they further release their agents over a period of days, providing longer-term pain relief and treatment. FIG. 4 and FIG. 5 illustrate this effect. Fluorescence was used in order to provide detection. As shown, the multiple fluorescent layers released over time and permeated the tissue at different rates, providing a customized treatment.

[2] = release profile of cisplatin from particles, detected by atomic absorption spectrometry; assay type: physicochemical; conditions: over 60 hours; particles of average diameter 500 to 2000 nm
From the text: FIG. 1 is a graph showing the release profile of example particles having an average diameter in the range of 500 to 2000 nm. […] Cisplatin was used for this experiment due to its use in the treatment of oral cancer and its ease of detection via atomic absorption spectrometry (AAS).

| permeation into tissue ([1]; after 30 minutes) | permeation into tissue ([1]; after 1 hour) | SMILES | cisplatin released from NPs [2] [%] |
| --- | --- | --- | --- |
| beginning to permeate the tissue | permeating deeper into the tissue | O=C1OC2(c3ccc(O)cc3Oc3cc(O)ccc32)c2ccc(N=C=S)cc21 [FITC] | – |
| – | – | N.N.[Cl][Pt][Cl] [cisplatin, Cisplatin] | 45 |
